Publication PMC11680592 (Scientific Reports, 2024)
Values belong to the compound of their own block, whether it stands above or below them.

Assays:
yeast α-glucosidase = yeast α-glucosidase (Saccharomyces cerevisiae, UniProt P53341); test: In vitro α-glucosidase inhibition assay; assay type: biochemical; conditions: for Fold increase of inhibitory activity relative to compound 10m: compared with 4-nitro derivative 10m; for Fold decrease of inhibitory activity relative to compound 10g: compared with 2,6-dimethyl derivative 10g; for Fold decrease of anti-α-glucosidase activity relative to compound 10e: compared with 4-ethylphenyl derivative 10e
α-glucosidase = α-glucosidase (Saccharomyces cerevisiae, UniProt P53341); test: Kinetic study of α-glucosidase inhibition; assay type: biochemical, yeast
α-glucosidase, sequence (P53341 whole entry): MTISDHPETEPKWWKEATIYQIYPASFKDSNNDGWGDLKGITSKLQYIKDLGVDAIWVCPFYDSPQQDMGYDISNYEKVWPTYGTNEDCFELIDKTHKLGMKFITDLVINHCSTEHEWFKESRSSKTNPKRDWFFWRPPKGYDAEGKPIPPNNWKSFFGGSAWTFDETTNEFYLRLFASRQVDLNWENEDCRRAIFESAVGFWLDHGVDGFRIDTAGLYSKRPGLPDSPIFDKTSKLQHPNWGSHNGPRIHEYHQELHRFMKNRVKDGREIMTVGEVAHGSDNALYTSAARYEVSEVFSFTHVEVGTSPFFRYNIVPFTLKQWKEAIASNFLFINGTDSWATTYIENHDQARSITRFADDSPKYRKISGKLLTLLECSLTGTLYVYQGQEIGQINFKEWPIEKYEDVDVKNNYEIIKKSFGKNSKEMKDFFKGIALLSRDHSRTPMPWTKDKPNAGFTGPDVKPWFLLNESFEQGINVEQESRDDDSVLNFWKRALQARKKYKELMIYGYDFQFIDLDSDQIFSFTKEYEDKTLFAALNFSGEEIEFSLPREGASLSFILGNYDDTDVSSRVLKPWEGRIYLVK

yeast α-glucosidase, sequence (P53341 whole entry): as above

SMILES: Cc1cc([N+](=O)[O-])ccc1NC(=O)Cn1cc(CSc2nc3ccccc3cc2/C=N/NC(N)=S)nn1 [Compound 10l, (E)-2-(4-(((3-((2-Carbamothioylhydrazineylidene)methyl)quinolin-2-yl)thio)methyl)-1H-1,2,3-triazol-1-yl)-N-(2-methyl-4-nitrophenyl)acetamide]
Fold increase of inhibitory activity relative to compound 10m (yeast α-glucosidase): 1.82 folds

SMILES: Cc1ccccc1NC(=O)Cn1cc(CSc2nc3ccccc3cc2/C=N/NC(N)=S)nn1 [Compound 10b, (E)-2-(4-(((3-((2-Carbamothioylhydrazineylidene)methyl)quinolin-2-yl)thio)methyl)-1H-1,2,3-triazol-1-yl)-N-(o-tolyl)acetamide]
Fold decrease of inhibitory activity relative to compound 10g (yeast α-glucosidase): 2.3 folds

SMILES: NC(=S)N/N=C/c1cc2ccccc2nc1SCc1cn(CC(=O)Nc2cccc([N+](=O)[O-])c2)nn1 [Compound 10k, (E)-2-(4-(((3-((2-Carbamothioylhydrazineylidene)methyl)quinolin-2-yl)thio)methyl)-1H-1,2,3-triazol-1-yl)-N-(3-nitrophenyl)acetamide]
Fold increase of inhibitory activity relative to compound 10m (yeast α-glucosidase): 2.58 folds

SMILES: Cc1cccc(NC(=O)Cn2cc(CSc3nc4ccccc4cc3/C=N/NC(N)=S)nn2)c1C [Compound 10f, (E)-2-(4-(((3-((2-Carbamothioylhydrazineylidene)methyl)quinolin-2-yl)thio)methyl)-1H-1,2,3-triazol-1-yl)-N-(2,3-dimethylphenyl)acetamide]
Fold decrease of inhibitory activity relative to compound 10g (yeast α-glucosidase): 1.6 folds

SMILES: NC(=S)N/N=C/c1cc2ccccc2nc1SCc1cn(CC(=O)NCCc2ccccc2)nn1 [Compound 10n, (E)-2-(4-(((3-((2-Carbamothioylhydrazineylidene)methyl)quinolin-2-yl)thio)methyl)-1H-1,2,3-triazol-1-yl)-N-phenethylacetamide]
Ki (α-glucosidase): 48.1 µM
Mode of α-glucosidase inhibition (α-glucosidase; Lineweaver–Burk plot, inhibitor 0, 12.1, 24.2, 48.4 µM): competitive α-glucosidase inhibitor
Improving the inhibitory effect (times more potent than acarbose) (yeast α-glucosidase): 15.5

Second part, the compound after the results:

Fold decrease of anti-α-glucosidase activity relative to compound 10e (yeast α-glucosidase): 5.38 folds
SMILES: NC(=S)N/N=C/c1cc2ccccc2nc1SCc1cn(CC(=O)Nc2ccccc2)nn1 [Compound 10a, (E)-2-(4-(((3-((2-Carbamothioylhydrazineylidene)methyl)quinolin-2-yl)thio)methyl)-1H-1,2,3-triazol-1-yl)-N-phenylacetamide]

Fold decrease of anti-α-glucosidase activity relative to compound 10e (yeast α-glucosidase): 6.97 folds
SMILES: Cc1ccc(NC(=O)Cn2cc(CSc3nc4ccccc4cc3/C=N/NC(N)=S)nn2)cc1 [Compound 10d, (E)-2-(4-(((3-((2-Carbamothioylhydrazineylidene)methyl)quinolin-2-yl)thio)methyl)-1H-1,2,3-triazol-1-yl)-N-(p-tolyl)acetamide]
